In patent US8398759B2, “Environmental friendly anti-microbial adhesion agents for anti-fouling paints and anti-fouling paints containing them” (Biopaint S.R.L., priority 2008, dated 2013):

Experiments:
Format in all cases: cell-based
[1] = tested on: mixed populations of biofilmogenic sea bacteria (M1, T1-T5, F1); assay: Bio-film formation (crystal violet, OD570) in 24-well microplates, compounds in the free form
Method: (§1) The effect of the anti-microbial-adhesion agent of the invention on microbial adhesion and growth has been estimated by using mixed populations of biofilmogenic sea bacteria isolated from the Tyrrhenian Sea (M1), the Adriatic Sea (T1-T5) and an exhausted aquarium filter (F1).
The tests with the compounds in the free form were carried out by using: • eugenol in a concentration in the range from 0.5 to 4 g/l, solubilized in an organic solvent (methanol); • vanillin in a concentration in the range from 0.1 to 5 g/l; • benzaldehyde derivatives in a concentration of 2 g/l.
The formation of the bio-film was assessed, in an indirect way, by measuring the amount of crystal violet retained by the cells grown adherently.
The tests were performed in 24-well microplates inoculated with sea bacteria from bio-films of cultures grown under static conditions for 2 weeks. The effect of the compounds was determined by culturing the microorganisms (starting OD600=0.5) in synthetic sea water (Tropic Marin Sea Salt; 33 g/l) supplemented with yeast extract (3 g/l) and fungal peptone (5 g/l). After the inoculation, the plates were incubated at 20° C. for 5 days before assessing the formation of a bio-film (OD570) and the growth of plankton (OD600). The bio-film was estimated after staining with crystal violet.
The inhibition of adhesion experiments were carried out in 24-well microplates by using eugenol concentrations comprised between 0.5 and 4 g/l. The eugenol stock solution was obtained by melting 2 ml of the compound into 3 ml of methanol and 5 ml of a 10 M NaOH solution. The control plates were set up by adding the same volume of hydroalcoholic solution without eugenol. The results shown in FIG. 1 were obtained by using the M1 population. The tests were subsequently repeated with all 7 populations, using an eugenol concentration of 0.5 g/l.

[2] = tested on: plankton growth of sea bacteria populations M1, T1 and T5; assay: Plankton growth (OD600) in microplates painted with vanillin-supplemented paints; conditions: paints V50, V100, V200; three populations (FIG. 10)
Method: The paints to be tested were applied only onto the side surface (corresponding to approximately 8.8 cm^2), avoiding to paint the bottom of the wells. The plates, after being painted, were maintained for 2 days at 20° C., in a dry and ventilated environment, before being used for the adhesion assay. The plates were inoculated with a cell suspension at an optical density (measured at 600 nm) of 0.5 absorbance units, kept under static incubation, in the dark, for 5 days at 20° C. 5 Days later, the microplates were drained and the growth of the plankton population was determined by a spectrophotometric assessment of the increase in absorbance of the incubation medium. The detection and quantification of a microbial biofilm formation was performed by a spectrophotometric assay. The biocide release rate under static conditions was calculated by measuring, through high performance liquid chromatography (HPLC), the increases in time of the biocide concentration in the liquid medium. […]
In FIG. 10, the increases in absorbance (OD600) are expressed as relative values compared to non-treated samples (not painted).

[3] = tested on: mixed populations of biofilmogenic sea bacteria (M1, T1-T5, F1); assay: Bio-film formation (OD570) in microplates painted with supplemented anti-fouling paints; conditions: 50 g of agent per kg of paint (E50 FIG. 8; V50 FIG. 9); M1, T1 and T5 populations
Method: as §1
The effectiveness of paints supplemented with the anti-microbial-adhesion agents of the invention in inhibiting the adherent growth of the sea bacteria used in the previous tests was assessed. The formation of a bio-film (OD570) was estimated by the microplate (24 wells) spectrophotometric assay described above. […]
Parallel assays were carried out by using microplates painted with a commercial anti-fouling product (Veneziani Raffaello bianca racing) and non-painted microplates. […]
The paints to be tested were applied only onto the side surface (corresponding to approximately 8.8 cm^2), avoiding to paint the bottom of the wells. […] The plates were inoculated with a cell suspension at an optical density (measured at 600 nm) of 0.5 absorbance units, kept under static incubation, in the dark, for 5 days at 20° C. 5 Days later, the microplates were drained and the growth of the plankton population was determined by a spectrophotometric assessment of the increase in absorbance of the incubation medium. The detection and quantification of a microbial biofilm formation was performed by a spectrophotometric assay. […]

Row | SMILES | persistence of the inhibition effect on adhesion ([1]; M1 population, 10 days of incubation (FIG. 4)) | concentration at which adhesion of microorganisms to solid surfaces is inhibited ([1]; vanillin tested at 0.1 to 5 g/l, free form, T1, M1, T2, T1-T5, F1 populations (FIG. 3a-5)) | effect of vanillin release on plankton growth (OD600 relative to non-painted samples) [2] | reduced adherent growth of sea bacteria compared to the commercial product [3] | reduction in the bio-film formation ([1]; eugenol 0.5 g/l, free form, 5 days at 20° C., all populations except T3 and F1 (FIG. 2)) | inhibition at 500 µg/mL ([1]; eugenol 0.5 g/l, free form, F1 population (FIG. 2)) | inhibition at 500 µg/mL ([1]; eugenol 0.5 g/l, free form, T3 population (FIG. 2))
1 | COc1cc(C=O)ccc1O [vanillin] | persists even after 10 days of incubation | above 1 g/l | reduced effect on the plankton growth | 1.5-15.8 fold | – | – | –
2 | C=CCc1ccc(O)c(OC)c1 [eugenol] | – | – | – | 1.2-3.2 fold | about 50% | ~60% | ~15%
